The record followed here is ChEMBL document CHEMBL1155851, “Synthesis of some novel imidazole-based dicationic carbazolophanes as potential antibacterials” (2008).

For one experiment, the system named is Proteus vulgaris. Kind of experiment: Antimicrobial activity against Proteus vulgaris. The experiment is classed as functional.
Another experiment has as its system Salmonella typhi. As to the kind of experiment: Antimicrobial activity against Salmonella typhi. The experiment is classed as functional, Salmonella enterica subsp. enterica serovar Typhi. Particulars: Salmonella enterica.
The next experiment relates to Pseudomonas aeruginosa. As to the kind of experiment: Antimicrobial activity against Pseudomonas aeruginosa. The class given is functional.
The subject of experiment [1] is Staphylococcus aureus. As to the kind of experiment: Antimicrobial activity against Staphylococcus aureus. The experiment is classed as functional.
In another experiment the test system is Proteus mirabilis. As to the kind of experiment: Antimicrobial activity against Proteus mirabilis. The class given is functional.
Experiment [2] relates to Staphylococcus aureus.

Converted amounts (≈) assume the structure as drawn. The source made the active and inactive calls. The rule behind the calls is not given here.

As to `CCn1c2ccc3cc2c2cc(ccc21)C(=O)c1ccc(cc1)Cn1cc[n+](c1)Cc1ccc(cc1)C(=O)c1ccc2c(c1)c1cc(ccc1n2CC)C(=O)c1ccc(cc1)C[n+]1ccn(c1)Cc1ccc(cc1)C3=O.[Br-].[Br-]`, the MIC against Proteus vulgaris turned out to be 40 µg/mL; in the experiment on Salmonella typhi, 25 µg/mL; in the experiment with Pseudomonas aeruginosa, 55 µg/mL; against Staphylococcus aureus [1], 25 µg/mL; with Proteus mirabilis, 35 µg/mL.
On to `CCn1c2ccc3cc2c2cc(ccc21)C(=O)c1ccc(cc1)Cn1cc[n+](c1)Cc1ccc(cc1)-c1cccc(c1C(=O)O)-c1ccc(cc1)C[n+]1ccn(c1)Cc1ccc(cc1)C3=O.[Br-].[Br-]`, for which the MIC against Proteus vulgaris came out at 65 µg/mL; against Salmonella typhi, 35 µg/mL; with Pseudomonas aeruginosa, 80 µg/mL; with Staphylococcus aureus [1], 35 µg/mL; with Proteus mirabilis it was 50 µg/mL.
As for `CCn1c2ccc3cc2c2cc(ccc21)C(=O)c1ccc(cc1)Cn1cc[n+](c1)Cc1cccc(n1)C[n+]1ccn(c1)Cc1ccc(cc1)C3=O.[Br-].[Br-]`, the MIC came out at 25 µg/mL in the experiment on Proteus vulgaris; 15 µg/mL in the experiment on Salmonella typhi; 30 µg/mL with Pseudomonas aeruginosa; 12 µg/mL in the experiment on Staphylococcus aureus [1]; 20 µg/mL against Proteus mirabilis.
In the case of `CCn1c2ccc3cc2c2cc(ccc21)C(=O)c1ccc(cc1)Cn1c[n+](c2ccccc21)Cc1cc(OC)c(cc1OC)C[n+]1cn(c2ccccc21)Cc1ccc(cc1)C3=O.[Br-].[Br-]`, the MIC came to 45 µg/mL in the experiment with Proteus vulgaris, 40 µg/mL in the experiment with Salmonella typhi, 70 µg/mL with Pseudomonas aeruginosa and 55 µg/mL against Proteus mirabilis.
Consider `CCn1c2ccc3cc2c2cc(ccc21)C(=O)c1ccc(cc1)Cn1cc[n+](c1)Cc1cc([N+](=O)[O-])cc(c1O)C[n+]1ccn(c1)Cc1ccc(cc1)C3=O.[Br-].[Br-]`, for which the MIC in the experiment with Proteus vulgaris stood at 30 µg/mL; with Salmonella typhi, 20 µg/mL; with Pseudomonas aeruginosa, 35 µg/mL; against Staphylococcus aureus [1], 20 µg/mL; against Proteus mirabilis, 20 µg/mL.
Turning to `CCn1c2ccc3cc2c2cc(ccc21)C(=O)c1ccc(cc1)Cn1c[n+](c2ccccc21)Cc1ccc(cc1)C(=O)c1ccc2c(c1)c1cc(ccc1n2CC)C(=O)c1ccc(cc1)C[n+]1cn(c2ccccc21)Cc1ccc(cc1)C3=O.[Br-].[Br-]`, the MIC in the experiment on Proteus vulgaris amounted to 30 µg/mL; against Salmonella typhi, 25 µg/mL; against Pseudomonas aeruginosa, 35 µg/mL; against Staphylococcus aureus [1] it was 26 µg/mL; with Proteus mirabilis, 30 µg/mL.
Take `CCn1c2ccc3cc2c2cc(ccc21)C(=O)c1ccc(cc1)Cn1cc[n+](c1)Cc1ccc(cc1)-c1cccc(c1)-c1ccc(cc1)C[n+]1ccn(c1)Cc1ccc(cc1)C3=O.[Br-].[Br-]`: the MIC in the experiment with Proteus vulgaris was determined as 70 µg/mL; in the experiment on Salmonella typhi, 55 µg/mL; in the experiment with Pseudomonas aeruginosa, 75 µg/mL; with Staphylococcus aureus [1], 75 µg/mL; against Proteus mirabilis, 75 µg/mL.
Take `CCn1c2ccc3cc2c2cc(ccc21)C(=O)c1ccc(cc1)Cn1c[n+](c2ccccc21)Cc1ccc(cc1)-c1cccc(c1)-c1ccc(cc1)C[n+]1cn(c2ccccc21)Cc1ccc(cc1)C3=O.[Br-].[Br-]`: the MIC against Proteus vulgaris stood at 50 µg/mL; against Salmonella typhi, 45 µg/mL; against Pseudomonas aeruginosa it was 65 µg/mL; against Staphylococcus aureus [1] it was 45 µg/mL; against Proteus mirabilis it was 50 µg/mL.
As to `CCn1c2ccc3cc2c2cc(ccc21)C(=O)c1ccc(cc1)Cn1c[n+](c2ccccc21)Cc1cc([N+](=O)[O-])cc(c1O)C[n+]1cn(c2ccccc21)Cc1ccc(cc1)C3=O.[Br-].[Br-]`, the MIC against Proteus vulgaris was found to be 35 µg/mL; with Salmonella typhi, 15 µg/mL; with Pseudomonas aeruginosa, 30 µg/mL; with Staphylococcus aureus [1] it was 20 µg/mL; against Proteus mirabilis it was 30 µg/mL.
As for `CCn1c2ccc3cc2c2cc(ccc21)C(=O)c1ccc(cc1)Cn1c[n+](c2ccccc21)Cc1ccc(cc1)-c1cccc(c1C(=O)O)-c1ccc(cc1)C[n+]1cn(c2ccccc21)Cc1ccc(cc1)C3=O.[Br-].[Br-]`, the MIC against Proteus vulgaris is 60 µg/mL; against Salmonella typhi, 50 µg/mL; against Pseudomonas aeruginosa it was 70 µg/mL; against Proteus mirabilis it was 55 µg/mL. In the experiment with Staphylococcus aureus [2], the MIC result was “inactive”.
Take `CN(C)[C@@H]1C(O)=C(C(N)=O)C(=O)[C@@]2(O)C(O)=C3C(=O)c4c(O)cccc4[C@@](C)(O)[C@H]3C[C@@H]12` [TETRACYCLINE]: the MIC amounted to 35 µg/mL (≈ 78.8 µM) against Proteus vulgaris; 15 µg/mL (≈ 33.8 µM) against Salmonella typhi; 35 µg/mL (≈ 78.8 µM) against Pseudomonas aeruginosa; 20 µg/mL (≈ 45 µM) with Staphylococcus aureus [1]; 20 µg/mL (≈ 45 µM) against Proteus mirabilis.
For `CCn1c2ccc3cc2c2cc(ccc21)C(=O)c1ccc(cc1)Cn1c[n+](c2ccccc21)Cc1cccc(n1)C[n+]1cn(c2ccccc21)Cc1ccc(cc1)C3=O.[Br-].[Br-]`, the MIC was found to be 15 µg/mL with Proteus vulgaris; 15 µg/mL in the experiment on Salmonella typhi; 20 µg/mL with Pseudomonas aeruginosa; 8 µg/mL with Staphylococcus aureus [1]; 10 µg/mL in the experiment with Proteus mirabilis.
